From patent publication US20110105441A1, “Stable Orally Disintegrating Tablets Having Low Superdisintegrant” (FMC CORPORATION, priority 2009, published 2011)
Each block holds one compound with its values, some of them ahead of it.

Experiments:
[1] = Dissolution of API from ODTs (USP 31 guidelines); type: physicochemical; settings: 70-80N hardness
Procedure: Dissolution properties of the ODTs were determined by following USP 31 guidelines for each model APIs. The percent of drug released at predetermined time intervals were calculated and plotted against the sampling time to obtain the release profiles. ODTs that fall within a 70-80N hardness range were studied.

[2] = cited from earlier work
[3] = cited from earlier work; remark: listed apart in the source

time to full release of API from ODT ([1]; naproxen ODTs): ≤ 10 min
Structure (SMILES): COc1ccc2cc([C@H](C)C(=O)O)ccc2c1 [Naproxen]

time to full release of API from ODT ([1]; acetaminophen ODTs): ≤ 10 min
Structure (SMILES): CC(=O)Nc1ccc(O)cc1 [Acetaminophen]
pKa [3]: 9.2
solubility in water (in words) [2]: highly water soluble

time to full release of API from ODT ([1]; CPM ODTs): ≤ 5 min
Structure (SMILES): CN(C)CC[C@@H](c1ccc(Cl)cc1)c1ccccn1.O=C(O)/C=C\C(=O)O [CPM, Chlorpheniramine Maleate]
pKa [3]: 9.2

The next lines start with the compound.

Structure (SMILES): OC[C@@H](O)[C@@H](O)[C@H](O)[C@H](O)CO [Spray dried mannitol, mannitol]
time in which 5 g dissolves in 150 mL of water ([2]; at 20° C.): approximately 5 sec

Structure (SMILES): Cn1c(=O)c2nc[nH]c2n(C)c1=O [Theophylline]
time to full release of API from ODT ([1]; theophylline ODTs): fully released at five minutes
pKa [3]: 8.7
solubility in water ([2]; neutral distilled water at 25° C.): about 8 mg/mL

Structure (SMILES): CC(=O)Oc1ccccc1C(=O)O [Aspirin]
solubility in water (in words) [2]: highly water soluble
